Results reported in patent US9498495B2, “Methods for in vitro differentiation of TH-17+ cells” (New York University, priority 2008, dated 2016).

Assays:
Type in all cases: cell-based, human
[1] = test system: Cord blood CD4+ T cells transduced with RORγT; assay: IL-17 and FOXP3 expression following RORγT transduction of cord blood CD4+ T cells (intracellular staining); settings: for effect on the suppression of IL-17 production induced by TGF-β: RORγT-transduced cells, with TGF-β; for increase of the proportion of IL-17-producing cells after forced expression of RORγT: cytokine 10 ng/ml
[2] = test system: Naive cord blood CD4+ T cells; assay: Th17 cell polarization of naive cord blood CD4+ T cells in serum-free media (intracellular and surface staining: IL-17, IL-22, FOXP3, CCR6); settings: for suppression of TGF-β-induced FOXP3 expression: added to TGF-β
Description: Blood samples were obtained from the New York Blood Center. Mononuclear cells were prepared from buffy coats of healthy adult donors or from cord blood on FicollPAQUE gradients. CD4^+ T cells were isolated on an autoMACS Pro using Miltenyi bead depletion of CD14^+ and CD25^+ cells followed by positive selection of CD4^+ cells. […] Adult CD4^+ T cell subsets and naive cord blood CD4^+ T cells were further purified respectively as CD3^+CD4^+CD25^−CD45RO^−/+ and CD3^+CD4^+CD25^−HLA-DR^−CD45RA^+ by cell sorting on a FACSAria.
(§1) Cells were cultivated in either RPMI1640 (Invitrogen) supplemented with 10% fetal bovine serum (Hyclone), penicillin-streptomycin, 2 mM glutamine, 10 mM HEPES, 1 mM pyruvate and 0.1 mM non-essential amino acids or serum-free XVIVO-20 (Lonza) supplemented with penicillin-streptomycin in a 37° C. 5% CO2 incubator. CD4^+ T cells were stimulated by addition of anti-mouse IgG magnetic beads (Pierce) previously coated with purified anti-CD3 and anti-CD28 at final concentrations of 1 bead/cell and 1 μg/ml of each antibody. […] Lentiviral supernatants were added at an MOI ranging from 1 to 10. […] For the shRNA experiment, puromycin was added at day 2 at 2 μg/ml. For polarization experiments, cells were seeded at a concentration of 5×10^5 to 10^6 cells/ml in U-bottom 96 well plates with anti-CD3/CD28 coated beads. […] For long-term experiments, cells were split as needed. […] Cells were harvested at day 6 for intracellular staining and real-time PCR analysis except where specified otherwise.
For intracellular cytokine staining, cells were incubated for 5 hours with 50 ng/ml PMA (Sigma), 500 ng/ml Ionomycin (Sigma), and GolgiStop (BD). Surface staining was performed by incubation with the corresponding fluorescently labeled antibodies for 15 min on ice. Intracellular staining was performed using the Cytofix/Cytoperm buffer set (BD). Briefly, cells were fixed and permeabilized for 30 min at room temperature and stained in permeabilization buffer for 30 min at room temperature. Flow cytometric measures were performed on a LSR II (BD Biosciences) instrument and analyzed using FlowJo software (Tree Star Inc.). Antibodies are detailed in Table 1. FOXP3 was stained using FOXP3 staining buffers (eBioscience). The present inventors used the FJK-16s antibody, which was originally reported as an anti-mouse/rat FoxP3 antibody.

[3] = test system: memory CD45RO+CD25−CCR6+CD4+ T cells; assay: IL-17 production in sorted adult blood memory CD4+ T cells cultured with or without IL-1β in serum-containing media (intracellular staining); settings: day 6
Description: (§2) Blood samples were obtained from the New York Blood Center. Mononuclear cells were prepared from buffy coats of healthy adult donors or from cord blood on FicollPAQUE gradients. CD4^+ T cells were isolated on an autoMACS Pro using Miltenyi bead depletion of CD14^+ and CD25^+ cells followed by positive selection of CD4^+ cells. Cord blood CD4^+ T cells were >97% pure and 100% CD45RA^+ and were used as such for initial transduction experiments. Adult CD4^+ T cell subsets and naive cord blood CD4^+ T cells were further purified respectively as CD3^+CD4^+CD25^−CD45RO^−/+ and CD3^+CD4^+CD25^−HLA-DR^−CD45RA^+ by cell sorting on a FACSAria.
(§3) Cells were cultivated in either RPMI1640 (Invitrogen) supplemented with 10% fetal bovine serum (Hyclone), penicillin-streptomycin, 2 mM glutamine, 10 mM HEPES, 1 mM pyruvate and 0.1 mM non-essential amino acids or serum-free XVIVO-20 (Lonza) supplemented with penicillin-streptomycin in a 37° C. 5% CO2 incubator. […]
(§4) For intracellular cytokine staining, cells were incubated for 5 hours with 50 ng/ml PMA (Sigma), 500 ng/ml Ionomycin (Sigma), and GolgiStop (BD). […] Flow cytometric measures were performed on a LSR II (BD Biosciences) instrument and analyzed using FlowJo software (Tree Star Inc.). […]

[4] = test system: naive CD45RO−CD25−CCR7+ T cells; assay: IL-17 production in sorted adult blood naive CD4+ T cells cultured with or without IL-1β in serum-containing media (intracellular staining); settings: day 6
Description: as §2, §3, §4

[5] = test system: Naive cord blood CD4+ T cells; assay: mRNA levels of Th17 markers (IL17, IL26, IL17F, RORC, RORA, IL23R) during Th17 cell differentiation of naive cord blood CD4+ T cells (real-time PCR); settings: day 6; for IL-17F expression / IL-23R expression: cytokine alone (with IL-2)
Description: as §2, §1
(§5) RNA was extracted by TRIZOL (Invitrogen) and cDNA was synthesized with Superscript II (Invitrogen) and random primers. cDNA was analyzed by real-time quantitative PCR in triplicates by using iQ CYBR Green Supermix (Bio-Rad) or QuantiTect Multiplex PCR mix (Qiagen) in the iCycler Sequence Detection System (Bio-Rad). The starting quantity (SQ) of the initial cDNA sample was calculated from primer-specific standard curves by using the iCycler Data Analysis Software. The expression level of each gene was normalized to beta-actin expression level using the standard curve method. Fold changes were calculated by normalizing to the first sample of each set. Error bars were calculated based on triplicate measurements of each gene. The primer sets for real-time PCR are detailed in Table 2.

[6] = test system: RORC; assay: RORC expression in CD45RO− adult naive CD4+ T cells cultivated with cytokines (real-time PCR); settings: cytokine alone
Description: as §2, with “FACSAria. […]” for “FACSAria.”
as §5, with “The expression level of each gene was normalized to beta-actin expression level using the standard curve method.” left out, “The primer sets for real-time PCR are detailed in Table 2.” left out

[7] = increasing concentration of TGF-β, day 6

## IL-6: cytokine, 10 ng/ml IL-6 (eBioscience)
[1]
  effect on the suppression of IL-17 production induced by TGF-β: partially relieved
[1]; day 6
  increase of the proportion of IL-17-producing cells after forced expression of RORγT: about two-fold
[2]; day 6
  suppression of TGF-β-induced FOXP3 expression: able to inhibit
[2]; both IL-1β and TGF-β included, day 6
  induction of IL-17: active, albeit not as strongly as IL-23
[2]; combined with TGF-β alone
  induction of IL-17: failed to induce

## IL-1β: cytokine, 10 ng/ml IL-1β (eBioscience)
[3]
  increase of IL-17 production: two-fold
[4]
  effect on IL-17 production: no effect
[1]
  effect on the suppression of IL-17 production induced by TGF-β: partially relieved
[1]; day 6
  increase of the proportion of IL-17-producing cells after forced expression of RORγT: about two-fold
[2]; day 6
  suppression of TGF-β-induced FOXP3 expression: not
[5]
  IL-17F expression: Some expression
  IL-23R expression: not

## soluble IL-21R: neutralizing soluble IL-21R (R&D) [reference compound]
[2]; IL-23+IL-1β+IL-2+TGF-β, at levels that inhibited STAT3 phosphorylation, day 6
  effect on IL-17 expression: no effect

## TGF-β: cytokine, TGF-β1 (PeproTech)
[1]; various concentrations of TGF-β, day 6
  effect on IL-17 production after forced expression of RORγT: potently suppressed
[6]
  RORγT (RORC) expression: induced dose-dependent RORγT expression
[2]; TGF-β alone, day 6
  CCR6 cell surface expression: induced
[2]; [7]
  FOXP3 expression: induced
  IL-22 expression: progressively inhibited
[5]
  RORA expression: slightly induced
  levels of IL-26 mRNA: increased with the dose
[5]; increasing concentrations of TGF-β
  RORC expression: gradually induced

B1: IL-23: cytokine, 10 ng/ml IL-23 (eBioscience) (protein, UniProt Q9NPF7 20-189; P29460 23-328, looked up)
Interleukin-23 subunit alpha: RAVPGGSSPAWTQCQQLSQKLCTLAWSAHPLVGHMDLREEGDEETTNDVPHIQCGDGCDPQGLRDNSQFCLQRIHQGLIFYEKLLGSDIFTGEPSLLPDSPVGQLHASLLGLSQLLQPEGHHWETQQIPSLSPSQPWQRLLLRFKILRSLQAFVAVAARVFAHGAATLSP
Interleukin-12 subunit beta: IWELKKDVYVVELDWYPDAPGEMVVLTCDTPEEDGITWTLDQSSEVLGSGKTLTIQVKEFGDAGQYTCHKGGEVLSHSLLLLHKKEDGIWSTDILKDQKEPKNKTFLRCEAKNYSGRFTCWWLTTISTDLTFSVKSSRGSSDPQGVTCGAATLSAERVRGDNKEYEYSVECQEDSACPAAEESLPIEVMVDAVHKLKYENYTSSFFIRDIIKPDPPKNLQLKPLKNSRQVEVSWEYPDTWSTPHSYFSLTFCVQVQGKSKREKKDRVFTDKTSATVICRKNASISVRAQDRYYSSSWSEWASVPCS
[2]; day 6
  suppression of TGF-β-induced FOXP3 expression: able to suppress
[5]
  IL-17F expression: no effect
  IL-23R expression: induced to some extent
